From PubChem BioAssay (NCI)
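1) Cells in 96-well plates. 2) Compound, 48 h, 5 concentrations. 3) Linear interpolation between surrounding doses. 4) Unreached endpoint = highest concentration. Definition used: TGI = concentration required for complete inhibition of growth.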

Key:
Assay in all cases: NCI-60 cell line screen, 48 h
M14 melanoma = tested on: M14 melanoma
HCT-15 colon = tested on: HCT-15 colon
UACC-62 melanoma = tested on: UACC-62 melanoma
UO-31 renal = tested on: UO-31 renal
HT29 colon = tested on: HT29 colon
OVCAR-3 ovarian = tested on: OVCAR-3 ovarian
SW-620 colon = tested on: SW-620 colon
786-0 renal = tested on: 786-0 renal
K-562 leukemia = tested on: K-562 leukemia
MALME-3M melanoma = tested on: MALME-3M melanoma
HOP-62 NSCLC = tested on: HOP-62 NSCLC
LOX IMVI melanoma = tested on: LOX IMVI melanoma
SK-MEL-5 melanoma = tested on: SK-MEL-5 melanoma
IGROV1 ovarian = tested on: IGROV1 ovarian
NCI-H522 lung = tested on: NCI-H522 lung
RXF 393 renal = tested on: RXF 393 renal
MCF7 breast = tested on: MCF7 breast

| Compound | TGI (M14 melanoma) [µM] | TGI (HCT-15 colon) [µM] | TGI (UACC-62 melanoma) [µM] | TGI (UO-31 renal) [µM] | TGI (HT29 colon) [µM] | TGI (OVCAR-3 ovarian) [µM] | TGI (SW-620 colon) [µM] | TGI (786-0 renal) [µM] | TGI (K-562 leukemia) [µM] | TGI (MALME-3M melanoma) [µM] | TGI (HOP-62 NSCLC) [µM] | TGI (LOX IMVI melanoma) [µM] | TGI (SK-MEL-5 melanoma) [µM] | TGI (IGROV1 ovarian) [µM] | TGI (NCI-H522 lung) [µM] | TGI (RXF 393 renal) [µM] | TGI (MCF7 breast) [µM] |
| --- | --- | --- | --- | --- | --- | --- | --- | --- | --- | --- | --- | --- | --- | --- | --- | --- | --- |
| COc1cc(CO)c(CC(=O)NCCCc2ccccc2)cc1OC | > 100 | > 100 | > 100 | > 100 | > 100 | > 100 | > 100 | > 100 | > 100 | > 100 | > 100 | > 100 | > 100 | > 100 |  |  |  |
| CC(C)CC(NC(=O)OC(C)(C)C)C(=O)Nc1ccc(Nc2nc(F)nc(-c3c4ccccc4c4n3CCS4)n2)cc1 (stereo unspecified) | 35.1 | 30.3 | 31.9 | 34.8 | 34.8 | 36.7 | 30.7 | 34.8 | 57.8 | 38.9 | 37.2 |  | 41.2 | 42.3 | 29.2 | 62.1 |  |
| CN(C)CCCNc1ccc([N+](=O)[O-])c2nc3ccccc3c(N)c12 | 1.95 | 1.7 | > 10 | 2.97 | 1.72 | 5.05 | 1.63 | 1.8 | 2.27 | > 10 | > 10 | 1.63 | 2.44 | 6.47 |  | 2.29 | > 10 |
| CCOC(=O)c1c(N)sc2c1C(C)(C(=O)OCC)CC2 (stereo unspecified) | > 100 | > 100 | > 100 | > 100 | > 100 |  | > 100 | > 100 | > 100 | > 100 | > 100 |  | > 100 | > 100 |  | > 100 | > 100 |
| CN1CCN(c2ncc3c(n2)sc2c(=O)n(-c4ccccc4)cnc23)CC1 | > 100 | > 100 | > 100 | > 100 | > 100 | > 100 | > 100 | > 100 | > 100 | > 100 | > 100 | > 100 | > 100 | > 100 | > 100 | > 100 |  |
| Cc1ccc([N+](=O)[O-])cc1NC(=O)/C(=N/NC(=S)NN)C1SC(=S)NC1=O (stereo unspecified) | > 100 | > 100 | > 100 | > 100 | > 100 |  | > 100 | > 100 | > 100 | > 100 | > 100 | > 100 | > 100 | > 100 | > 100 | > 100 |  |
| COC(=O)C(C#CCCCCC#CC(NC(=O)OCc1ccccc1)(C(=O)OC)C(F)(F)F)(NC(=O)OCc1ccccc1)C(F)(F)F (stereo unspecified) | > 100 | > 100 | > 100 | > 100 | > 100 | > 100 | > 100 | > 100 | > 100 | > 100 | > 100 | > 100 | > 100 | > 100 | > 100 | > 100 |  |
